Data: ChEMBL document CHEMBL1268958, “Synthesis and antihyperlipidemic activity of novel coumarin bisindole derivatives” (2010)

Assays:
Type in all cases: functional, Mesocricetus auratus
Syrian golden hamster [1] = assay: Antihyperlipidemic activity against high fat diet fed gloden syrian hamster assessed as change in total cholesterol level at 10 mg/kg, po for 7 days
Syrian golden hamster [2] = assay: Antihyperlipidemic activity against high fat diet fed gloden syrian hamster assessed as change in HDL to total cholesterol ratio at 10 mg/kg, po for 7 days
Syrian golden hamster [3] = assay: Antihyperlipidemic activity against high fat diet fed gloden syrian hamster assessed as change in triglyceride level at 10 mg/kg, po for 7 days
Syrian golden hamster [4] = assay: Antihyperlipidemic activity against high fat diet fed gloden syrian hamster assessed as change in HDL level at 10 mg/kg, po for 7 days
Syrian golden hamster [5] = assay: Antihyperlipidemic activity against high fat diet fed gloden syrian hamster assessed as change in HDL to total cholesterol ratio at 25 mg/kg, po for 7 days
Syrian golden hamster [6] = assay: Antihyperlipidemic activity against high fat diet fed gloden syrian hamster assessed as change in total cholesterol level at 25 mg/kg, po for 7 days
Syrian golden hamster [7] = assay: Antihyperlipidemic activity against high fat diet fed gloden syrian hamster assessed as change in HDL level at 25 mg/kg, po for 7 days
Syrian golden hamster [8] = assay: Antihyperlipidemic activity against high fat diet fed gloden syrian hamster assessed as change in triglyceride level at 25 mg/kg, po for 7 days

SMILES	Activity (Syrian golden hamster [1])	Activity (Syrian golden hamster [2])	Activity (Syrian golden hamster [3])	Activity (Syrian golden hamster [4])	Activity (Syrian golden hamster [5])	Activity (Syrian golden hamster [6])	Activity (Syrian golden hamster [7])	Activity (Syrian golden hamster [8])
COC(=O)c1cc2cc(C(c3c(C)n(C)c4ccccc34)c3c(C)n(C)c4ccccc34)c3ccccc3c2oc1=O	-4%	2%	-29%	-3%				
CCOC(=O)c1cc2cc(C(c3cn(C)c4ccccc34)c3cn(C)c4ccccc34)c3ccccc3c2oc1=O	3%	18%	-33%	22%				
CCOC(=O)c1cc2cc(C(c3c(C)[nH]c4ccccc34)c3c(C)[nH]c4ccccc34)c3ccccc3c2oc1=O	-7%	24%	-35%	14%				
CCOC(=O)c1cc2cc(C(c3c(C)n(C)c4ccccc34)c3c(C)n(C)c4ccccc34)c3ccccc3c2oc1=O	-38%	11%	-45%	-31%				
CCOC(=O)c1cc2cc(C(c3c(C)n(C)c4ccccc34)c3c(C)n(C)c4ccccc34)cc(C(C)CC)c2oc1=O (stereo unspecified)	-43%	39%	-57%	-20%				
COC(=O)c1cc2cc(C(c3c[nH]c4ccccc34)c3c[nH]c4ccccc34)c3ccccc3c2oc1=O	-12%	30%	-50%	13%				
COC(=O)c1cc2cc(C(c3cn(C)c4ccccc34)c3cn(C)c4ccccc34)c3ccccc3c2oc1=O	6%	12%	-35%	-17%				
COC(=O)c1cc2cc(C(c3c(C)[nH]c4ccccc34)c3c(C)[nH]c4ccccc34)c3ccccc3c2oc1=O	-17%	24%	-33%	1%				
CCOC(=O)c1cc2cc(C(c3c[nH]c4ccccc34)c3c[nH]c4ccccc34)c3ccccc3c2oc1=O	-20%	42%	-55%	14%				
CCOC(=O)c1cc2cc(C(c3c[nH]c4ccccc34)c3c[nH]c4ccccc34)cc(C(C)CC)c2oc1=O (stereo unspecified)	28%	-14%	-10%	11%				
CCOC(=O)c1cc2cc(C(c3cn(C)c4ccccc34)c3cn(C)c4ccccc34)cc(C(C)CC)c2oc1=O (stereo unspecified)	-36%	18%	-43%	-24%				
CCOC(=O)c1cc2cc(C(c3c(C)[nH]c4ccccc34)c3c(C)[nH]c4ccccc34)cc(C(C)CC)c2oc1=O (stereo unspecified)	-21%	9%	-39%	-13%				
CC(C)c1c(C(=O)Nc2ccccc2)c(-c2ccccc2)c(-c2ccc(F)cc2)n1CC[C@@H](O)C[C@@H](O)CC(=O)O [ATORVASTATIN]	-14%	35%	-63%	15%				
CC[C@H](C)C(=O)O[C@H]1C[C@@H](C)C=C2C=C[C@H](C)[C@H](CC[C@@H]3C[C@@H](O)CC(=O)O3)[C@H]21 [LOVASTATIN]					12%	-9%	3%	-29%
